Test results taken from patent publication US7498343B2, “Mycobacterial inhibitors” (priority 2002, dated 2009).
In brackets after ≈: the same amount, converted by molar mass. Like-named read-outs stand apart in the source and are kept apart here.

Key:
M. Smegmatis ATCC607 = assay: In-vitro method for testing compounds for anti-bacterial activity against strain M. smegmatis ATCC607 (Alamar Blue growth inhibition); type: cell-based; conditions: M. smegmatis ATCC607, pIC50 = -logIC50, IC50 in M, 50% inhibitory concentration for bacterial growth, 48 hours incubation
Method: C.2. In-vitro Method for Testing Compounds for Anti-bacterial Activity Against Strain M. Smegmatis ATCC607. […] Subsequently, stock solutions (7.8×final test concentration) of compounds were added in 45 μl volumes to a series of duplicate wells in column 2 so as to allow evaluation of their effects on bacterial growth. Serial five-fold dilutions (45 μl in 180 μl) were made directly in the microtiter plates from column 2 to 11 using a customised robot system (Zymark Corp., Hopkinton, Mass.). Pipette tips were changed after every 3 dilutions to minimize pipetting errors with high hydrophobic compounds. Untreated control samples with (column 1) and without (column 12) inoculum were included in each microtiter plate. Approximately 250 CFU per well of bacteria inoculum, in a volume of 100 μl in 2.8×Mueller-Hinton broth medium, was added to the rows […]. The same volume of broth medium without inoculum was added to column 12 in row A to H. The cultures were incubated at 37° C. for 48 hours in a humidified 5% CO2 atmosphere (incubator with open air valve and continuous ventilation). At the end of incubation, two days after inoculation, the bacterial growth was quantitated fluorometrically. Therefore Alamar Blue (10×) was added to all wells in a volume of 20 μl and plates were incubated for another 2 hours at […] The fluorescence was read in a computer-controlled fluorometer (Cytofluor, Biosearch) at an excitation wavelength of 530 nm and an emission wavelength of 590 nm (gain 30). The % growth inhibition achieved by the compounds was calculated according to standard methods.

[1] = test system: Mycobacterium tuberculosis (strain H37RV); assay: In-vitro method for testing compounds against M. tuberculosis (resazurin growth inhibition, MIC); type: cell-based; conditions: MIC data representing IC90's, 7 days incubation, resazurin fluorescence
[2] = Mycobacterium tuberculosis, H37RV, 168 h, read-out: MIC

| Compound | pIC50 (M. Smegmatis ATCC607) | MIC [1] [microgram/ml] | MIC [1, 2] [µg/mL] | IC50 (M. Smegmatis ATCC607; Mycolicibacterium smegmatis, ATCC607, 48 h, read-out: pIC50 (converted)) [nM] |
| --- | --- | --- | --- | --- |
| COc1nc2ccc(Br)cc2cc1C(c1ccccc1)C(O)(CCCN(C)C)c1ccccc1 (single isomer, unassigned) [Compound 63] | 6.7 | 1.64 |  |  |
| COc1nc2ccc(Br)cc2cc1C(c1ccccc1)C(O)(CCN(C)C)C1CCN(C(=O)c2ccccc2)CC1 (single isomer, unassigned) [Compound 201] | 5.7 | 9.77 |  |  |
| COc1nc2ccc(Br)cc2cc1C(c1ccccc1)C(O)(CCN1CCOCC1)c1ccc2ccccc2c1 (single isomer, unassigned) [Compound 139] | 4.1 | 59.76 |  |  |
| COc1nc2ccc(Br)cc2cc1C(c1ccccc1)C(O)(CCCCN(C)C)c1ccccc1 (single isomer, unassigned) [Compound 66] | 4.7 | 1.69 |  |  |
| COc1nc2ccc(Br)cc2cc1C(c1ccccc1)C(O)(CCN(C)C)c1cccs1 (single isomer, unassigned) [Compound 20] | 5.9 | 40.63 |  |  |
| COc1nc2ccc(Br)cc2cc1C(c1ccccc1)C(O)(CCN1CCCCC1)c1ccc2ccccc2c1 (stereo not shown) [Compound 129] | 4.7 |  | 47.3 (≈ 79.4 µM) |  |
| COc1nc2ccc(-c3ccco3)cc2cc1C(c1ccccc1)C(O)(CCN(C)C)c1cccc(F)c1 (single isomer, unassigned) [Compound 174] | 6.8 | 0.06 |  |  |
| COc1nc2ccc(Br)cc2cc1C(c1ccccc1)C(O)(CCN(C)C)c1ccc(N2CCOCC2)cc1 (racemic) [Compound 89] | 6.4 | 59.06 |  |  |
| COc1ccc2nc(OC)c(C(c3ccccc3)C(O)(CCN(C)C)c3cccc4ccccc34)cc2c1 (single isomer, unassigned) [Compound 98] | 7.9 | 0.51 |  |  |
| COc1nc2ccc(Br)cc2cc1C(c1ccccc1)C(O)(CCN1CCOCC1)c1ccccc1 (racemic) [Compound 124] | 5.3 | 54.75 |  |  |
| COc1nc2ccc(Br)cc2cc1C(c1ccccc1)C(O)(CCN(C)C)c1cccs1 (single isomer, unassigned) [Compound 21] | 5.4 | 16.17 |  |  |
| COc1nc2ccc(Br)cc2cc1C(c1ccccc1)C(O)(CCN(C)C)c1ccc2c(Br)cccc2c1 (single isomer, unassigned) [Compound 130] | 5.3 | 50.32 |  |  |
| COc1nc2cc(C)c(Br)cc2cc1C(c1ccccc1)C(O)(CCN(C)C)c1cccc(F)c1 (single isomer, unassigned) [Compound 216] | 8.0 | 0.85 |  |  |
| COc1nc2ccc(C#N)cc2cc1C(c1ccccc1)C(O)(CCN(C)C)c1cccc(F)c1 (single isomer, unassigned) [Compound 179] | 7.0 | 1.48 |  |  |
| CCN(CC)CCC(O)(c1ccccc1)C(c1ccccc1)c1cc2cc(Br)ccc2nc1OC (stereo not shown) [Compound 18] |  |  | 10.6 (≈ 19.9 µM) | 200 |
| COc1nc2ccc(Br)cc2cc1C(c1ccccc1)C(O)(CCN(C)C)c1ccc2ccccc2c1 (racemic) [Compound 45] | 8.0 | 1.76 |  |  |
| COc1nc2ccc(Br)cc2cc1C(c1ccccc1)C(O)(CCCN1CCCC1)c1cccc2ccccc12 (single isomer, unassigned) [Compound 194] | 4.9 | 47.31 |  |  |
| COc1nc2ccc(-c3ccccc3)cc2cc1C(c1ccccc1)C(O)(CCN(C)C)c1ccccc1 (single isomer, unassigned) [Compound 26] | 7.2 | 1.00 |  |  |
| COc1ccc2nc(OC)c(C(c3ccccc3)C(O)(CCN(C)C)c3cccc4ccccc34)cc2c1 (single isomer, unassigned) [Compound 97] | 5.9 | 20.17 |  |  |
| COc1nc2ccc(Br)cc2cc1C(c1ccccc1)C(O)(CCN(C)C)c1cc(F)ccc1F (stereo not shown) [Compound 68] | 6.4 |  |  |  |
| CN(C)CCC(O)(c1cccc2ccccc12)C(c1ccccc1)c1cc2cc(Br)ccc2nc1N1CCOCC1 (racemic) [Compound 79] | 7.2 | 2.43 |  |  |
| COc1nc2ccccc2cc1C(c1ccccc1)C(O)(CCN(C)C)c1cccc(F)c1 (racemic) [Compound 93] | 4.8 | 35.31 |  |  |
| CN(C)CCC(O)(c1ccccc1)C(c1ccccc1)c1cc2cc(Br)ccc2nc1O (single isomer, unassigned) [Compound 60] | 5.6 |  |  |  |

| Compound | pIC50 (M. Smegmatis ATCC607) | MIC [1] [microgram/ml] | MIC [1, 2] [µg/mL] | IC50 (M. Smegmatis ATCC607; Mycolicibacterium smegmatis, ATCC607, 48 h, read-out: pIC50 (converted)) [nM] |
| --- | --- | --- | --- | --- |
| CCN(CC)CCCC(O)(c1ccc2ccccc2c1)C(c1ccccc1)c1cc2cc(Br)ccc2nc1OC (single isomer, unassigned) [Compound 193] | 5.6 | 9.47 |  |  |
| COc1nc2ccc(Br)cc2cc1C(c1ccccc1)C(O)(CC[N+](C)(C)[O-])c1cccc2ccccc12 (racemic) [Compound 101] | 5.8 | 9.06 |  |  |
| COc1nc2ccc(Br)cc2cc1C(c1ccccc1)C(O)(CCN1CCCCC1)c1ccccc1 (stereo not shown) [Compound 48] | 5.8 | 8.65 |  |  |
| COc1ccc2nc(OC)c(C(c3ccccc3)C(O)(CCN(C)C)c3ccccc3)cc2c1 (single isomer, unassigned) [Compound 35] | 6.8 | 1.82 |  |  |
| COc1nc2cc(C)c(Br)cc2cc1C(c1ccccc1)C(O)(CCN(C)C)c1cc(F)cc(F)c1 (single isomer, unassigned) [Compound 228] | 5.1 | 8.80 |  |  |
| COc1nc2ccc(Br)cc2cc1C(c1ccccc1)C(O)(CCN(C)C)c1ccc2c(c1)OCO2 (racemic) [Compound 75] | 7.9 | 1.74 |  |  |
| COc1nc2ccc(Br)cc2cc1C(c1ccc(Cl)cc1)C(O)(CCN(C)C)c1cccc2ccccc12 (racemic) [Compound 73] | 8.0 | 23.49 |  |  |
| COc1nc2ccc(Br)cc2cc1C(c1ccccc1)C(O)(CCN(C)C)c1ccc2c3c(cccc13)CC2 (single isomer, unassigned) [Compound 122] | 4.8 | 58.16 |  |  |
| COc1nc2ccc(Br)cc2cc1C(c1ccccc1)C(O)(CCN(C)C)c1ccc2c(c1)OCCO2 (racemic) [Compound 78] | 5.8 | 44.76 |  |  |
| COc1nc2ccc(Br)cc2cc1C(c1ccccc1)C(O)(CCN1CCCCC1)c1ccc2ccccc2c1 (stereo not shown) [Compound 128] |  | 59.56 |  |  |
| COc1nc2ccc(Br)cc2cc1C(c1ccccc1)C(O)(CCN(C)C)c1ccccc1 (stereo not shown) [Compound 2] | 6.8 |  |  |  |
| CN(C)CCC(O)(c1ccccc1)C(c1ccccc1)c1cc2cc(Br)ccc2nc1O (single isomer, unassigned) [Compound 59] | 5.1 |  |  |  |
| CN(C)CCC(O)(c1ccccc1)C(c1ccccc1)c1cc2cc(Br)ccc2n2ccnc12 (single isomer, unassigned) [Compound 105] | 6.0 |  |  |  |
| COc1nc2ccc(Br)cc2cc1C(c1ccccc1)C(O)(CCN(C)C)c1cccc(F)c1 (stereo not shown) [Compound 108] | 7.0 |  |  |  |
| COc1nc2ccc(Br)cc2cc1C(c1ccccc1)C(O)(CCN1CCOCC1)c1ccc2cc(Br)ccc2c1 (single isomer, unassigned) [Compound 177] |  | 67.65 |  |  |
| COc1nc2ccc(Br)cc2cc1C(c1ccccc1)C(O)(CCCN1CCOCC1)c1ccc2ccccc2c1 (single isomer, unassigned) [Compound 161] |  | 61.16 |  |  |
| COc1nc2ccc(Br)cc2cc1C(c1ccccc1)C(O)(CCn1ccnc1)c1cccc2ccccc12 (single isomer, unassigned) [Compound 187] |  | 57.85 |  |  |
| COc1nc2ccc(Br)cc2cc1C(c1ccccc1)C(O)(CCN(C)C)c1ccccc1 (stereo not shown) [Compound 1] | 7.3 |  |  |  |
| COc1nc2ccc(Br)cc2cc1C(c1ccccc1)C(O)(CCN1CCN(C)CC1)c1ccccc1 (racemic) [Compound 51] | 5.8 |  |  |  |
| COc1nc2ccc(Br)cc2cc1C(c1ccccc1)C(O)(CCN1CCN(c2ncccn2)CC1)c1ccc2ccccc2c1 (single isomer, unassigned) [Compound 209] |  | 67.47 |  |  |
| COc1nc2ccc(Br)cc2cc1C(c1ccccc1)C(O)(CCN(C)C)c1ccccc1 (stereo not shown) [Compound 3] | 6.7 |  |  |  |
| COc1nc2ccc(Br)cc2cc1C(c1ccccc1)C(O)(CCN(C)C)c1ccccc1 (stereo not shown) [Compound 4] | 5.7 |  |  |  |
| CN(C)CCC(O)(c1ccccc1)C(c1ccccc1)c1cc2cc(Br)ccc2n2ccnc12 (single isomer, unassigned) [Compound 104] | 6.6 |  |  |  |
